{
  "source": "paper PMC8513935",
  "origin": "cited, not measured here",
  "key": {"[1]": {"assay": "derived by the authors as gas->solvent minus gas->water (a hypothetical dry solvent; the ESI), not a two-phase measurement"}, "[2]": {"assay": "experimental, compiled by the authors from the literature (the ESI cites the sources)"}, "[3]": {"assay": "log P octanol/water from commercial databases, averaged (the ESI)", "conditions": "Octanol (wet), 25 C"}},
  "data": [
    {"smiles": "CCCCCCCCC", "values": [
      {"measurement": "log K of transfer, water to solvent", "setting": "[1]; 1,2-Dichloroethane, 25 C", "value": 6.04, "unit": "log10 K"},
      {"measurement": "log K of transfer, water to solvent", "setting": "[1]; Acetone, 25 C", "value": 5.81, "unit": "log10 K"},
      {"measurement": "log K of transfer, water to solvent", "setting": "[1]; Acetonitrile, 25 C", "value": 5.15, "unit": "log10 K"},
      {"measurement": "log K of transfer, water to solvent", "setting": "[1]; Butanone, 25 C", "value": 6.05, "unit": "log10 K"},
      {"measurement": "log K of transfer, water to solvent", "setting": "[1]; Butyronitrile, 25 C", "value": 5.78, "unit": "log10 K"},
      {"measurement": "log K of transfer, water to solvent", "setting": "[1]; CCl4, 25 C", "value": 6.7, "unit": "log10 K"},
      {"measurement": "log K of transfer, water to solvent", "setting": "[1]; Chlorobenzene, 25 C", "value": 6.67, "unit": "log10 K"},
      {"measurement": "log K of transfer, water to solvent", "setting": "[1]; Chloroform, 25 C", "value": 6.57, "unit": "log10 K"},
      {"measurement": "log K of transfer, water to solvent", "setting": "[1]; Cyclohexanone, 25 C", "value": 5.99, "unit": "log10 K"},
      {"measurement": "log K of transfer, water to solvent", "setting": "[1]; Dichloromethane, 25 C", "value": 6.36, "unit": "log10 K"},
      {"measurement": "log K of transfer, water to solvent", "setting": "[1]; Ethanol, 25 C", "value": 5.67, "unit": "log10 K"},
      {"measurement": "log K of transfer, water to solvent", "setting": "[1]; Hexadecane, 25 C", "value": 6.33, "unit": "log10 K"},
      {"measurement": "log K of transfer, water to solvent", "setting": "[1]; Hexane, 25 C", "value": 6.66, "unit": "log10 K"},
      {"measurement": "log K of transfer, water to solvent", "setting": "[1]; Methanol, 25 C", "value": 5.38, "unit": "log10 K"},
      {"measurement": "log K of transfer, water to solvent", "setting": "[1]; Perfluoroalkane, 25 C", "value": 5.02, "unit": "log10 K"},
      {"measurement": "log K of transfer, water to solvent", "setting": "[1]; Propan-1-ol, 25 C", "value": 5.7, "unit": "log10 K"},
      {"measurement": "log K of transfer, water to solvent", "setting": "[1]; Propan-2-ol, 25 C", "value": 5.78, "unit": "log10 K"},
      {"measurement": "log K of transfer, water to solvent", "setting": "[1]; Propionitrile, 25 C", "value": 5.57, "unit": "log10 K"},
      {"measurement": "log K of transfer, water to solvent", "setting": "[1]; Tetrahydrofuran, 25 C", "value": 6.49, "unit": "log10 K"},
      {"measurement": "log K of transfer, water to solvent", "setting": "[1]; Toluene, 25 C", "value": 6.49, "unit": "log10 K"},
      {"measurement": "log K of transfer, gas to solvent", "setting": "[2]; 1,2-Dichloroethane, 25 C", "value": 3.89, "unit": "log10 K"},
      {"measurement": "log K of transfer, gas to solvent", "setting": "[2]; Acetonitrile, 25 C", "value": 3, "unit": "log10 K"},
      {"measurement": "log K of transfer, gas to solvent", "setting": "[2]; Butanone, 25 C", "value": 3.9, "unit": "log10 K"},
      {"measurement": "log K of transfer, gas to solvent", "setting": "[2]; Butyronitrile, 25 C", "value": 3.63, "unit": "log10 K"},
      {"measurement": "log K of transfer, gas to solvent", "setting": "[2]; CCl4, 25 C", "value": 4.55, "unit": "log10 K"},
      {"measurement": "log K of transfer, gas to solvent", "setting": "[2]; Chlorobenzene, 25 C", "value": 4.52, "unit": "log10 K"},
      {"measurement": "log K of transfer, gas to solvent", "setting": "[2]; Chloroform, 25 C", "value": 4.42, "unit": "log10 K"},
      {"measurement": "log K of transfer, gas to solvent", "setting": "[2]; Cyclohexanone, 25 C", "value": 3.84, "unit": "log10 K"},
      {"measurement": "log K of transfer, gas to solvent", "setting": "[2]; Dichloromethane, 25 C", "value": 4.21, "unit": "log10 K"},
      {"measurement": "log K of transfer, gas to solvent", "setting": "[2]; Ethanol, 25 C", "value": 3.52, "unit": "log10 K"},
      {"measurement": "log K of transfer, gas to solvent", "setting": "[2]; Hexadecane, 25 C", "value": 4.18, "unit": "log10 K"},
      {"measurement": "log K of transfer, gas to solvent", "setting": "[2]; Hexane, 25 C", "value": 4.51, "unit": "log10 K"},
      {"measurement": "log K of transfer, gas to solvent", "setting": "[2]; Methanol, 25 C", "value": 3.23, "unit": "log10 K"},
      {"measurement": "log K of transfer, gas to solvent", "setting": "[2]; Perfluoroalkane, 25 C", "value": 2.87, "unit": "log10 K"},
      {"measurement": "log K of transfer, gas to solvent", "setting": "[2]; Propan-1-ol, 25 C", "value": 3.55, "unit": "log10 K"},
      {"measurement": "log K of transfer, gas to solvent", "setting": "[2]; Propan-2-ol, 25 C", "value": 3.63, "unit": "log10 K"},
      {"measurement": "log K of transfer, gas to solvent", "setting": "[2]; Propanone, 25 C", "value": 3.66, "unit": "log10 K"},
      {"measurement": "log K of transfer, gas to solvent", "setting": "[2]; Propionitrile, 25 C", "value": 3.42, "unit": "log10 K"},
      {"measurement": "log K of transfer, gas to solvent", "setting": "[2]; Tetrahydrofuran, 25 C", "value": 4.34, "unit": "log10 K"},
      {"measurement": "log K of transfer, gas to solvent", "setting": "[2]; Toluene, 25 C", "value": 4.34, "unit": "log10 K"},
      {"measurement": "log K of transfer, gas to solvent", "setting": "[2]; Water, 25 C", "value": -2.15, "unit": "log10 K"},
      {"measurement": "log K of transfer, water to solvent", "setting": "[3]", "value": 5.65, "unit": "log10 K"}
    ]},
    {"smiles": "CCC(=O)CC", "values": [
      {"measurement": "log K of transfer, water to solvent", "setting": "[1]; Cyclohexane, 25 C", "value": 0.65, "unit": "log10 K"},
      {"measurement": "log K of transfer, water to solvent", "setting": "[1]; Hexadecane, 25 C", "value": 0.311, "unit": "log10 K"},
      {"measurement": "log K of transfer, water to solvent", "setting": "[1]; Octan-1-ol(dry), 25 C", "value": 0.7, "unit": "log10 K"},
      {"measurement": "log K of transfer, gas to solvent", "setting": "[2]; Cyclohexane, 25 C", "value": 3.15, "unit": "log10 K"},
      {"measurement": "log K of transfer, gas to solvent", "setting": "[2]; Hexadecane, 25 C", "value": 2.81, "unit": "log10 K"},
      {"measurement": "log K of transfer, gas to solvent", "setting": "[2]; Octan-1-ol, 25 C", "value": 3.2, "unit": "log10 K"},
      {"measurement": "log K of transfer, gas to solvent", "setting": "[2]; Water, 25 C", "value": 2.5, "unit": "log10 K"},
      {"measurement": "log K of transfer, water to solvent", "setting": "[3]", "value": 0.82, "unit": "log10 K"}
    ]}
  ]
}
